Reference: PubChem BioAssay (NCI)
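Test compounds were applied to cells in 96-well plates for 48 hours at 5 doses. TGI is the concentration that stops growth completely.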

Columns and labels:
Test in all cases: NCI anticancer screen, dose series, 48 h
[1] = tested on: XF 498 CNS
[2] = tested on: SNB-75 CNS
[3] = tested on: LOX IMVI melanoma
[4] = tested on: RPMI-8226 leukemia
[5] = tested on: SF-539 CNS
[6] = tested on: RXF 393 renal
[7] = tested on: ACHN renal
[8] = tested on: HCC-2998 colon
[9] = tested on: DLD-1 colon
[10] = tested on: UACC-62 melanoma

SMILES | TGI [1] [µM] | TGI [2] [µM] | TGI [3] [µM] | TGI [4] [µM] | TGI [5] [µM] | TGI [6] [µM] | TGI [7] [µM] | TGI [8] [µM] | TGI [9] [µM] | TGI [10] [µM]
C#CCNC(=O)NCCCCC(NC(=O)OCc1ccccc1)C(=O)OCc1ccccc1 (stereo not given) | 40.8 | > 100 | > 82.2 | 45.9 | > 100 | > 100 | > 31.6 | > 72.5 | > 100 | > 100
Cc1cc(NC(=O)C2C3C=CC(O3)C2C(=O)O)no1 (stereo not given) | > 100 | > 100 | 29.8 | 37.4 | 54.9 | 31 | > 100 | > 100 | 49.2 | > 100
CC1(C)C2CCC3(OCCO3)C1C(O)C2 (stereo not given) | > 100 | > 100 | > 100 | > 100 | > 100 | > 100 | > 100 | > 100 | > 100 | > 100
CC(=O)NC(CCCCN)C(=O)NCc1ccccc1 (stereo not given) | > 100 | > 100 | > 100 | > 100 | > 100 | > 100 | > 100 | > 100 | > 100 | > 100
CC1(c2cc3c(cc2Br)OCO3)SCCCS1 | 82.3 | > 100 | > 100 | 91.6 | > 100 | 37.3 | > 100 | 77.3 | > 100 | > 100
CNc1ccc2ncccc2c1[N+](=O)[O-] | > 100 | > 100 | > 100 | > 100 | > 100 | > 100 | > 100 | > 100 | > 100 | > 100
Cc1cc(C)nc(/C(=N\NC(N)=O)C(=O)Nc2nc3ccc(C)cc3s2)c1 | > 100 | > 100 | > 70.5 | > 69.6 | > 100 | > 100 | > 100 | > 100 | > 100 | > 100
CCOc1ccc(/C(C=O)=C(\Cl)c2ccc(OC)cc2)cc1 | > 100 | > 100 | > 100 | > 100 | > 100 | > 100 | > 100 | > 100 | > 100 | > 100
CCc1cccc(C)c1NC(=O)CCc1nnc2s/c(=C\c3cccc4ccccc34)c(=O)n12 | > 100 | > 100 | > 100 | > 100 | > 100 | > 100 | > 100 | > 100 | > 100 | > 100
